US20250008959A1, “HERBICIDES AND USE THEREOF” (Projini Agchem LTD, priority 2021, published 2025)
pIC50, pKd: −log10 of the molar value.

Tests used:
Arabidopsis thaliana = assay: Root elongation in plates (in planta root elongation assay); assay type: in vivo; conditions: 168 h, A. thaliana on MS medium plates, 7 days, read-out: Root-growth inhibition %
Method: 6-well plates were prepared in a biological hood with sterile half Murashige and Skoog mineral medium (MS; Duchefa, Haarlem, Netherlands) containing 1% sucrose (w/v), pH 5.8. Tested molecules were dissolved in 50 mM DMSO and diluted to various concentrations 1,000-fold greater than the final desired concentration the MS medium maintaining a final concentration of 0.1% DMSO. MS medium with 0.1% DMSO was used as a negative control. After 7 days the plates were scanned and the root length was calculated using the imageJ software. […] Further sterilization was done by washing the seeds with 50% hypochlorite and 0.2% Triton x-100 for 10 minutes followed by five cycles of washing with sterile water. Six seeds were placed in each well, and the plates were covered and sealed with parafilm. Plates were placed vertically at 4° C. for two days and then transferred to a growth chamber for seven days (22-24° C.) at day/light cycles of 16/8 hours. Following the in vitro evaluation, selected molecules were tested for their ability to inhibit A. thaliana root elongation on agar plates. Seeds were plated on medium containing the molecules dissolved in the indicated concentrations and root length was measured after 6 or 7 days when the root in the non-treated plate reached the end of the well.

[1] = molecular target: T1, OASS-SAT complex (AtOASS with SAT-derived peptide) (Arabidopsis thaliana, UniProt P47998); assay: Fluorescence polarization (FP) competition with FITC-labeled SAT-derived peptide bound to OASS; assay type: binding; conditions: competition with FITC-SAT peptide 200 nM, OASS 2.2 μM; for pIC50: single site inhibition model
T1 construct: GST (N, cleaved yes); made in house; host or cells: E. coli Rosetta (DE3)
Method: Molecules were also tested for their ability to compete with the OASS binding to the SAT-derived peptide via a fluorescence polarization (FP) competition assay wherein the N-terminus labeled peptide was incubated with the AtOASS (see Examples section below). High FP values correspond to the peptide-bound state (low molecule concentrations) and low FP values correspond to the peptide-free state (low FP values). To extract the IC50, the FP data were fitted to a single site inhibition model in PRISM by GraphPad Software. The corresponding IC50 values were extracted, whereas low IC50 values correspond to molecule that better competes with the peptide binding to AtOASS. Fluorescence polarization (FP) measurements were made on samples arrayed in 96-well plates by using BioTek H1 Synergy instrument equipped with FP module. […] The peptide in a concentration of 200 nM was incubated with OASS at a concentration of 2.2 μM in each well. Variable concentrations of each molecule starting from 100 μM down to 0.048 μM were added to evaluate the ability of each molecule to compete off the FITC labeled peptide bound to OASS. Fluorescence experiments were executed with an Em/Exc wavelengths of 480/520 nm. All measurements were done in triplicate. Experimental polarization data from simple and competitive binding experiments were fitted using GraphPad Prism, with error bars representing SD. Molecules were also tested for their ability to compete with the OASS binding to the SAT-derived peptide via a fluorescence polarization (FP) competition assay. The N-terminus labeled peptide was incubated with the AtOASS in each of the wells in a 96-well plate. Various concentrations of the molecules were added and the FP values were recorded. High FP values correspond to the peptide-bound state (low molecule concentrations) and low FP values correspond to the peptide-free state (low FP values). To extract the IC50, the FP data were fitted to a single site inhibition model in graphpad prism. The corresponding IC50 values were extracted. Low IC50 values correspond to molecule that better competes with the peptide binding to AtOASS.

[2] = molecular target: T2, AtOASS (O-acetyl serine sulfhydrylase from Arabidopsis thaliana) (Arabidopsis thaliana, UniProt P47998); assay: Isothermal titration calorimetry (ITC) binding to OASS; conditions: for pKd: OASS titrated into compound in ITC cell, single binding model
T2 construct: GST (N, cleaved yes); made in house; host or cells: E. coli Rosetta (DE3)
From the text: To evaluate the ability of the molecules to bind AtOASS (O-acetyl serine sulfhydrylase from Arabidopsis thaliana), the protein was placed in the ITC syringe and was titrated with the molecules that were placed in the ITC cell (see Examples section below). The direct dissociation binding constant (Kd) was then extracted from the binding curve using a single binding model, wherein a low Kd value corresponds to a stronger binding affinity.
To evaluate the binding of the small molecules to the enzyme OASS, the purified protein was placed in a 6-8 MWCO dialysis bag in 30 mM phosphate buffer, 30 mM NaCl, 1 mM TCEP, and 5% dimethyl sulfoxide. Sequential buffer exchange dialyses were executed for 12 hours each at 4° C. until dilution of >10,000 was achieved. Before the execution of the ITC binding experiment, the OASS was placed in the ITC syringe at a concentration of 400 μM and each of the small molecules was dissolved in the same dialysis buffer to a final concentration of 40 μM in the ITC cell. ITC experiments were conducted by titrating the OASS to the compounds in the cell. The ITC binding constant was evaluated using the build-in analysis software.
The designed de-novo herbicidal compounds were synthesized and evaluated for their in vitro and in planta activity. After dissolving the molecules to a stock of 50 mM in DMSO, binding and competition with the SAT-derived peptides were evaluated using ITC and FP. ITC measures the direct heat change occurring due to the interaction of a pair of molecules. ITC has certain advantages, such as the capability to detect a relatively broad range of binding affinities, being a label-free method, and providing a wide set of interaction parameters, such as affinity, stoichiometry, enthalpy, and entropy of binding. To evaluate the ability of the molecules to bind AtOASS, the protein was placed in the ITC syringe and was titrated with the molecules that were placed in the ITC cell. The direct dissociation binding constant (Kd) was then extracted from the binding curve using a single binding model. Two consecutive experiments were combined using the built in ITC module to enable better quantification. A low Kd value corresponds to a stronger binding affinity.

T2 sequence (P47998 whole entry): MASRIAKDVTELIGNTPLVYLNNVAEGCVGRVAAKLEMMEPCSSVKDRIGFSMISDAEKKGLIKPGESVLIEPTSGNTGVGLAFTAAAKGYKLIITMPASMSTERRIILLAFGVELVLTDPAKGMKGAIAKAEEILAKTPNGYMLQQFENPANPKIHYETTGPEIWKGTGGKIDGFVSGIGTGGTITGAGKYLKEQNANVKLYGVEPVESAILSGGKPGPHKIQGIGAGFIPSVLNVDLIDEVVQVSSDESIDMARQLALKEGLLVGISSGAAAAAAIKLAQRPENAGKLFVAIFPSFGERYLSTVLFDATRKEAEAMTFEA
T1 sequence (P47998 whole entry, one chain of several): as the sequence (P47998 whole entry) above

Row | Compound | FP % inhibition [1] [%] | pIC50 [1] | pKd [2] | direct binding to AtOASS by ITC (in vitro screening of purchased virtual hits) ([2]; result in words) | inhibition at 50 µM (Arabidopsis thaliana) [%]
1 | O=C(O)c1cc2c(c(S(=O)(=O)Nc3cccc(-c4n[nH]c(C5CC5)n4)c3)c1)CCC2 [PJL-71] | 24 | 4.68 | 5.21 | – | 17
2 | Nc1cc(F)ccc1-c1csc(NC(=O)c2ccccc2-c2ccccc2C(=O)O)n1 [PJL-111] | 45 | – | – | – | 66
3 | COc1ccccc1-n1cc(S(=O)(=O)Nc2ccc(F)cc2C(=O)O)cn1 [PJL-85] | 15 | 3.95 | – | – | 0
4 | CC(C)(C)NC(=O)c1ccc(NC(=O)c2ccccc2-c2ccccc2C(=O)O)cc1 [PJL-67] | 30 | 4.68 | 5.62 | – | 9
5 | O=C(O)c1cc(F)ccc1NS(=O)(=O)c1cnn(-c2ccccc2F)c1 [PJL-5] | 16 | 3.83 | – | – | 56
6 | O=C(O)c1ccccc1-c1ccccc1C(=O)Nc1cc(-c2ccc(Cl)cc2Cl)c[nH]c1=O [PJL-120] | 14 | 3.94 | – | – | 88
7 | CC(C)(C)NC(=O)c1cccc(NC(=O)c2ccccc2-c2ccccc2C(=O)O)c1 [PJL-59] | 19 | 4.24 | – | – | 6
8 | O=C(O)c1cc(F)ccc1-c1ccccc1C(=O)Nc1nc(-c2ccc(Cl)cc2Cl)cs1 [PJL-119] | 52 | 5.07 | – | – | 100
9 | O=C(O)c1cc2c(c(S(=O)(=O)Nc3cccc(C(=O)Nc4ccccn4)c3)c1)CCC2 [PJL-70] | 15 | – | – | – | 0
10 | Cc1cn(-c2ccccc2)nc1NS(=O)(=O)c1cc(C(=O)O)cc2c1CCC2 [PJL-2] | 11 | 3.63 | – | – | 70
11 | CCc1nnc(-c2ccc(O)c(NC(=O)Cc3ccccc3C(=O)O)c2)o1 [PJL-92] | 13 | 3.91 | – | – | 0
12 | O=C(Cc1ccccc1C(=O)O)Nc1cc(C(=O)Nc2cccnc2)ccc1F [PJL-91] | 13 | 4.26 | – | – | –
13 | O=C(O)c1cc(NS(=S)(=S)c2cnc(-c3ccc(F)cc3)s2)c(F)cc1F [PJL-27] | 11 | 3.73 | – | – | 25
14 | CC(C)c1n[nH]c(-c2ccc(NC(=O)Cc3ccccc3C(=O)O)cc2)n1 [PJL-95] | 27 | 4.66 | – | – | 10
15 | CC(C)Cc1ccc(-c2csc(NC(=O)c3ccccc3-c3ccccc3C(=O)O)n2)cc1 [PJL-108] | 47 | 5.33 | – | – | 17
16 | Cc1cc2cc(NS(=O)(=O)c3cc(C(=O)O)cc4c3CCC4)ccc2[nH]1 [PJL-22] | 13 | 3.69 | – | – | 0
17 | COc1ccc(NS(=O)(=O)c2cc(C(=O)O)cc3c2CCC3)cc1Cl [PJL-21] | 14 | 3.83 | – | – | 0
18 | O=C(O)c1ccccc1-c1cccnc1C(=O)Nc1nc(-c2ccc(Cl)cc2Cl)cs1 [PJL-115] | 36 | 4.92 | – | – | 96
19 | O=C(O)c1ccc(O)cc1NS(=O)(=O)c1cnc(-c2ccccc2)o1 [PJL-82] | 11 | 3.82 | – | – | 0
20 | CCn1nnc(-c2ccc(O)c(NC(=O)Cc3ccccc3C(=O)O)c2)n1 [PJL-88] | 10 | 4.10 | – | – | 0
21 | CN(C)c1ncn(-c2cccc(NS(=O)(=O)c3cc(C(=O)O)cc4c3CCC4)c2)n1 [PJL-74] | 26 | 4.66 | – | – | 9
22 | CC(C)c1n[nH]c(-c2cccc(NC(=O)Cc3ccccc3C(=O)O)c2)n1 [PJL-96] | 22 | 4.37 | – | – | 2
23 | Cc1ccnc(-n2cc(S(=O)(=O)Nc3ccc(F)cc3C(=O)O)cn2)c1 [PJL-86] | 36 | 4.70 | – | – | 0
24 | O=C(O)c1cc2c(c(S(=O)(=O)Nc3cccc(-c4noc(C5CCCO5)n4)c3)c1)CCC2 (stereo not shown) [PJL-69] | 21 | – | 5.09 | – | –
25 | COc1ccc(C(=O)O)c(NS(=O)(=O)c2cnn(-c3cccc(C(F)(F)F)c3)c2)c1 [PJL-114] | 17 | 4.39 | 4.92 | – | –

Second part, led by results:

Row | FP % inhibition [1] [%] | pIC50 [1] | pKd [2] | direct binding to AtOASS by ITC (in vitro screening of purchased virtual hits) ([2]; result in words) | Compound | inhibition at 50 µM (Arabidopsis thaliana) [%]
26 | 42 | 5.03 | – | – | O=C(O)c1ccccc1-c1cc(CO)ccc1C(=O)Nc1nc(-c2ccc(Cl)cc2Cl)cs1 [PJL-131] | –
27 | 51 | 5.35 | – | – | O=C(O)c1ccccc1-c1ccc(O)cc1C(=O)Nc1nc(-c2ccc(Cl)cc2Cl)cs1 [PJL-132] | –
28 | 56 | 5.47 | – | – | COc1ccc(-c2csc(NC(=O)c3ccc(C)cc3-c3ccccc3C(=O)O)n2)cc1 [PJL-125] | –
29 | 16 | – | – | – | COc1cc(NS(=O)(=O)c2cnc(-c3ccc(F)cc3)s2)c(C(=O)O)cc1F [PJL-123] | –
30 | 18 | 4.27 | – | – | O=C(O)c1ccc(Cl)c(S(=O)(=O)Nc2cccc(C(=O)Nc3cccc(C(F)(F)F)c3)c2)c1 [PJS-227] | 39
31 | 52 | 5.47 | – | – | O=C(O)c1ccccc1-c1cc(O)ccc1C(=O)Nc1nc(-c2ccc(Cl)cc2Cl)cs1 [PJL-130] | 93
32 | – | – | – | showed direct binding to AtOASS by ITC | CC(C)CNC(=O)c1cccc(NC(=O)c2ccccc2-c2ccccc2C(=O)O)c1 [PJS-120] | –
33 | 43 | 4.96 | – | – | CC(=O)Nc1ccc(C(=O)Nc2nc(-c3ccc(Cl)cc3Cl)cs2)c(-c2ccccc2C(=O)O)c1 [PJL-129] | –
34 | 48 | 5.12 | – | – | COc1ccc(C(=O)O)c(-c2cc(N)ccc2C(=O)Nc2nc(-c3ccc(Cl)cc3Cl)cs2)c1 [PJL-133] | –
35 | 25 | – | – | – | CCc1ccc(C(=O)O)c(NS(=O)(=O)c2cnc(-c3ccc(F)cc3)s2)c1 [PJL-122] | –
36 | 4.6 | 3.49 | – | – | COc1ccc(C(=O)O)c(NS(=O)(=O)c2cnn(-c3ccc(F)cc3)c2)c1 [PJL-121] | 72
37 | 41 | 4.73 | – | – | COc1ccc(-c2csc(NC(=O)c3cccc(C)c3-c3ccccc3C(=O)O)n2)cc1 [PJL-128] | –
